This is an account of results in EP1954678B1, “NOVEL NK1 AND NK2 ANTAGONISTS” (Abbott Products GmbH, priority 2005, dated 2007).

The target of assay [1] is T1, cloned human NK1 receptors (Homo sapiens, UniProt P25103).
T1 construct: expressed in transfected cells
As to the kind of experiment: Ca2+ measurements using FLIPR for NK1 activity in CHO cells. The note with it: substance P 10^-8 M as agonist; compound applied 7 min before; pA2 calculated from IC50. It is filed as cell-based. The text has this:
(§1) The NK receptor is coupled to Gq.
(§2) All steps were done under sterile conditions. […] The results are summarized in table 5: Table 5: pA2 data for NK1 and NK2: […]

In assay [2] the target is T2, cloned human NK2 receptors (Homo sapiens, UniProt P21452).
T2 construct: expressed in transfected cells
T2 sequence (P21452 1-398): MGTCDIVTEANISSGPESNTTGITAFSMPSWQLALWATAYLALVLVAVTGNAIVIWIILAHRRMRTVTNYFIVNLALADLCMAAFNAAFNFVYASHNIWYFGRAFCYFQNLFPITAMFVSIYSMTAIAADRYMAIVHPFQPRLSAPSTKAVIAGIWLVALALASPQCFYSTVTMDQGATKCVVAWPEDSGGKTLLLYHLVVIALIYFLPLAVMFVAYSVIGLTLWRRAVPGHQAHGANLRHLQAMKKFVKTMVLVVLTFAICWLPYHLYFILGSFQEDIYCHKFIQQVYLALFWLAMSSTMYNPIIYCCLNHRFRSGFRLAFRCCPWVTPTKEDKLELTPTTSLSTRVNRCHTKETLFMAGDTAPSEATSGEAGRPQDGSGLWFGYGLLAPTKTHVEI
As to the kind of experiment: Ca2+ measurements using FLIPR for NK2 activity in CHO cells. It is filed as cell-based. The following applies: NKA 10^-7 M as agonist; compound applied 7 min before; pA2 calculated from IC50.
Text: as §1, §2

The next assay has as its target T3, human NK1 receptors (Homo sapiens, UniProt P25103).
T3 construct: expressed in transfected cells; host or cells: CHO cells (membrane preparation)
As to the kind of experiment: Binding of the test substances to NK1 receptors in vitro ([3H]-Substance P displacement, CHO cell membranes). The note with it: [3H]-Substance P as ligand; membranes of CHO cells expressing the human NK1 receptor; Ki calculated from IC50; read-out: pKi (NK1) (converted). As to the method:
In The Netherlands, the affinity of the test substances to human NK1 receptors was measured in vitro.
The receptor binding studies were performed with [^3H]-Substance P as ligand. For the binding test, different samples of a membrane preparation of CHO cells (= egg cells of the Chinese hamster, Chinese hamster oocytes), which express the human NK1 receptor ("Accession Number" of the associated nucleic acid sequence = M74290; "Accession Number" of the associated protein sequence = P25103; cf. Takeda, Y.; Chou, K. B., Takeda, J.; Sachais, B.S. and Krause, J. E; Biochemical and Biophysical Research Communications, 179(3) (1991) 1232 - 1240), were incubated with a solution of the marked ligand, with the incubation mixtures containing no test substance or additions of different concentrations of test substance. Then, separation of bound and free ligands was performed in each of the samples with the aid of glass-fibre filtration. The fraction remaining in the filter was washed several times with buffer solution and then the radioactivity of the fraction remaining in the filter was measured using a beta scintillation counter.
For the compounds of Examples 1 to 14, that concentration which effects half maximum displacement of the bound ligand was determined as IC50 of the respective test substance. From this, the corresponding inhibition constant (Ki value) of the test substance was calculated, and was stated as the negative common logarithm of the Ki value (= pKi value). The pKi value is a measurement of the affinity of the test substances to human NK1 receptors.

A further assay concerns the target T4, human NK2 receptors (Homo sapiens, UniProt P21452).
T4 construct: expressed in transfected cells; host or cells: CHO cells (membrane preparation)
T4 sequence (P21452 1-398): T2 sequence (P21452 1-398)
As to the kind of experiment: Binding of the test substances to NK2 receptors in vitro ([3H]-SR 48968 displacement, CHO cell membranes). The following applies: [3H]-SR 48968 as ligand; membranes of CHO cells expressing the human NK2 receptor; 90 min incubation; Ki calculated from IC50; read-out: pKi (NK2) (converted). Here is the method:
The affinity of the test substances to human NK2 receptors was measured in vitro. The ability of the test substances to displace the selective NK2 receptor antagonist SR 48968 (= saredutant) used as reference ligand from its corresponding bond was determined.
The receptor binding studies were carried out with radioactively marked [^3H]-SR 48968 (from Amersham) as ligand. For the binding test, different samples of a membrane preparation of CHO cells (= egg cells of the Chinese hamster, Chinese hamster oocytes), which express the human NK2 receptor (for preparation, see N.P. Gerard et al., Journal of Biological Chemistry 265/33 (1990) 20455-20462), were incubated for 90 minutes (= min.) with a solution of the marked ligand, with the incubation mixtures containing no test substance or additions of different concentrations of test substance. Then in each case the membrane-bound ligands in the samples were separated from free ligands by filtration. The fraction remaining in the filter was washed several times with buffer solution, before its radioactivity was measured using a liquid scintillation counter. That concentration which effects half-maximum displacement of the bound reference ligand was determined as IC50 of the respective test substance. The inhibition constant (Ki value) of the test substance was calculated from the respective IC50 value, and was stated as the negative logarithmised value thereof (pKi).
If several measurements were performed, the average thereof was listed each time. The pKi value is a measurement of the affinity of the test substances to human NK2 receptors.

T3 sequence (P25103 whole entry): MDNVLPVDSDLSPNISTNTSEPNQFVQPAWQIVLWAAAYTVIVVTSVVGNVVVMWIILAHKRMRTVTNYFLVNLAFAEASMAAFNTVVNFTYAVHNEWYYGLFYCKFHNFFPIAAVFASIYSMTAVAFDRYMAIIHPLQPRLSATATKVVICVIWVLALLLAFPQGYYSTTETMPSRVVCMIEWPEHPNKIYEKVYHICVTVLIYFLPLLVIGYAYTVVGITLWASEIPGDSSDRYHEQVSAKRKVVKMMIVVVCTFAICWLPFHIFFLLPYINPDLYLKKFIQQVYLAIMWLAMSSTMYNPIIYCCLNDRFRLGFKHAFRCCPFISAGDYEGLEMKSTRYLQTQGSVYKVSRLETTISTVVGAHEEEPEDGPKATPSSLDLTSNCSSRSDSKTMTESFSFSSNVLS
T1 sequence (P25103 whole entry): as above

As for `CN(CC(CCN1CCN(C(Cc2ccccc2)C(O)CO)CC1)c1ccc(Cl)c(Cl)c1)C(=O)c1cc(C#N)cc2ccccc12` (stereo not drawn) [Compound 24], the “pA2 (NK1)” value in assay [1] is given as 8,1. Further, the “pA2 (NK2)” value in assay [2] is given as 7,8.

On to `COc1ccc([C@@H]([C@H](O)CO)N2CCN(CC[C@H](CN(C)C(=O)c3cc(C#N)cc4ccccc34)c3ccc(Cl)c(Cl)c3)CC2)cc1` [Compound 16, 3-cyano-N-[(2)-2-(3,4-dichlorophenyl)-4-{4-[(1S,2S)-2,3-dihydroxy-1-(4-methoxyohenyl)propyl]piperazin-1-yl}butyl]-N-methyl-1-naphthamide], for which, in assay [1], the “pA2 (NK1)” value was 9,3. Also, in assay [2], the “pA2 (NK2)” value was 9,1.

Consider `CN(C[C@@H](CCN1CCN([C@@H](c2ccsc2)[C@H](O)[C@H](O)[C@H](O)CO)CC1)c1ccc(Cl)c(Cl)c1)C(=O)c1cc(C#N)cc2ccccc12` [Compound 4, 3-cyano-N-[(2S)-2-(3,4-dichlorophenyl)-4-{4-[(1S,2S,3S,4R)-2,3,4,5-tetrahydroxy-1-(3-thienyl)pentyl]piperazin-1-yl}butyl]-N-methyl-1-naphthamide], for which the Ki was 2.51 nM at human NK1 receptors and 126 nM at human NK2 receptors.

For `CN(C[C@@H](CCN1CCN([C@@H](c2ccc(Cl)s2)[C@H](O)CO)CC1)c1ccc(Cl)c(Cl)c1)C(=O)c1cc(C#N)cc2ccccc12` [Compound 18, N-[(2S)-4-{4-[(1R,2S)-1-(5-chloro-2-thienyl)-2,3-dihydroxypropyl]piperazin-1-yl}-2-(3,4-dichlorophenyl)butyl]-3-cyano-N-methyl-1-naphthamide], the Ki on human NK1 receptors is 3.16 nM; on human NK2 receptors, 158 nM. Besides, the values for the Kb in assay [1] and in assay [2] were 6.31 nM and 2.51 nM, respectively.

Take `CC(=O)OC[C@@H](OC(C)=O)[C@H](c1ccco1)N1CCN(CC[C@H](CN(C)C(=O)c2cc(C#N)cc3ccccc23)c2ccc(Cl)c(Cl)c2)CC1` [Compound 27, (2S,3R)-2-(acetyloxy)-3-{4-[(3S)-4-[3-cyano-1-naphthoyl)(methyl)amino]-3-(3,4-dichlorophenyl)butyl]piperazin-1-yl}-3-(2-furyl)propyl acetate]: the “pA2 (NK1)” value in assay [1] was 9,2. For the same compound, in assay [2], the “pA2 (NK2)” value is reported as 8,1.

For the compound `CC(=O)OCC(O)C(Cc1ccccc1)N1CCN(CCC(CN(C)C(=O)c2cc(C#N)cc3ccccc23)c2ccc(Cl)c(Cl)c2)CC1` (stereo not drawn) [Compound 26], the “pA2 (NK1)” value in assay [1] was 8,0. The “pA2 (NK2)” value in assay [2] is reported as 7,4.

For the compound `CN(C[C@@H](CCN1CCN([C@@H](c2cc3ccccc3o2)[C@H](O)CO)CC1)c1ccc(Cl)c(Cl)c1)C(=O)c1cc(C#N)cc2ccccc12` [Compound 17, N-[(2S)-4-{4-[(1R,2S)-1-(1-benzofuran-2-yl)-2,3-dihydroxypropyl]piperazin-1-yl}-2-(3,4-dichlorophenyl)butyl]-3-cyano-N-methyl-1-naphthamide], the results for the Ki on human NK1 receptors and on human NK2 receptors were 31.6 nM and 3160 nM, respectively. In addition, the Kb in assay [1] and in assay [2] was 20 nM each time.

`CN(C[C@@H](CCN1CCN([C@@H](c2ccco2)[C@H](O)[C@H](O)[C@H](O)CO)CC1)c1ccc(Cl)c(Cl)c1)C(=O)c1cc(C#N)cc2ccccc12` [Compound 3, 3-cyano-N-[(2S)-2-(3,4-dichlorophenyl)-4-{4-[(1R,2S,3S,4R)-1-(2-furyl)-2,3,4,5-tetrahydroxypentyl]piperazin-1-yl}butyl]-N-methyl-1-naphthamide]: the Ki on human NK1 receptors was 1.58 nM; on human NK2 receptors, 63.1 nM.

Consider `CN(C[C@@H](CCN1CCN([C@@H](c2cc3ccccc3s2)[C@H](O)CO)CC1)c1ccc(Cl)c(Cl)c1)C(=O)c1cc(C#N)cc2ccccc12` [Compound 22, N-[(2S)-4-{4-[(1R,2S)-1-(1-benzothien-2-yl)-2,3-dihydroxypropyl]piperazin-1-yl}-2-(3,4-dichlorophenyl)butyl]-3-cyano-N-methyl-1-naphthamide], for which the Ki on human NK1 receptors is 3.98 nM; at human NK2 receptors it was 1000 nM. The values for the Kb in assay [1] and in assay [2] were 7.94 nM and 3.16 nM, respectively.

Take `CN(C[C@@H](CCN1CCN(C(CO)c2ccco2)CC1)c1ccc(Cl)c(Cl)c1)C(=O)c1cc(C#N)cc2ccccc12` (stereo partly drawn) [Compound 25, 3-cyano-N-[(2S)-2-(3,4-dichlorophenyl)-4-{4-[1-(2-furyl)-2-hydroxyethyl]piperazin-1-yl}butyl]-N-methyl-1-naphthamide]: the figures for the Ki on human NK1 receptors and at human NK2 receptors were 7.94 nM and 39.8 nM, respectively. The Kb is 3.16 nM in assay [1] and 1 nM in assay [2].

As to `CN(C[C@@H](CCN1CCN(C(CO)c2ccco2)CC1)c1ccc(Cl)c(Cl)c1)C(=O)c1cc(C#N)cc2ccccc12` (stereo partly drawn) [Compound 28, 3-cyano-N-[(2S)-2-(3,4-dichlorophenyl)-4-{4-[1-(2-furyl)-2-hydroxyethyl]piperazin-1-yl}butyl]-N-methyl-1-naphthamide], the results for the Ki at human NK1 receptors and at human NK2 receptors were 12.6 nM and 50.1 nM, respectively. For the same compound, the values for the Kb in assay [1] and in assay [2] were 2 nM and 25.1 nM, respectively.

Take `CN(C[C@@H](CCN1CCN([C@@H](c2ccc3c(c2)OCO3)[C@H](O)CO)CC1)c1ccc(Cl)c(Cl)c1)C(=O)c1cc(C#N)cc2ccccc12` [Compound 21, N-[(2S)-4-{4-[(1S,2S)-1-(1,3-benzodioxol-5-yl)-2,3-dihydroxypropyl]piperazin-1-yl}-2-(3,4-dichlorophenyl)butyl]-3-cyano-N-methyl-1-naphthamide]: the Ki was 2 nM on human NK1 receptors and 398 nM at human NK2 receptors. Also, the Kb in assay [1] is 0.794 nM; in assay [2] it was 0.316 nM.

As to `CN(C[C@@H](CCN1CCN([C@@H](c2ccoc2)[C@H](O)CO)CC1)c1ccc(Cl)c(Cl)c1)C(=O)c1cc(C#N)cc2ccccc12` [Compound 12, 3-cyano-N-[(2S)-2-(3,4-dichlorophenyl)-4-{4-[(1S,2S)-1-(3-furyl)-2,3-dihydroxypropyl]piperazin-1-yl}butyl]-N-methyl-1-naphthamide], the results for the Ki on human NK1 receptors and at human NK2 receptors were 10 nM and 100 nM, respectively.

In the case of `CN(C[C@@H](CCN1CCN(C(c2ccco2)C(O)CO)CC1)c1ccc(Cl)c(Cl)c1)C(=O)c1cc(C#N)cc2ccccc12` (stereo partly drawn) [Compound 14, 3-cyano-N-[(2S)-2-(3,4-dichlorophenyl)-4-{4-[1-(2-furyl)-2,3-dihydroxypropyl]piperazin-1-yl}butyl]-N-methyl-1-naphthamide], the Ki on human NK1 receptors is 5.01 nM; on human NK2 receptors, 12.6 nM. The Kb is 0.398 nM in assay [1] and 3.16 nM in assay [2].
